Data published in US12247032B2, “Substituted pyrazolo[1,5-a]pyrimidines as inhibitors of JAK kinases” (Genentech, Inc., priority 2019, dated 2025).
Read-outs that look alike come from different tables or passages of the source.

Tests used:
[1] = molecular target: T1, recombinant human JAK1 kinase domain protein (Residues 854-1154) (Homo sapiens, UniProt P23458); assay: JAK1 biochemical assay (microfluidic mobility shift, peptide phosphorylation); settings: 25 μM ATP, 1 nM total JAK1; Ki calculated from Ki app (tight-binding, competitive); read-out: Biochem JAK1 Ki
T1 construct: human JAK1 kinase domain protein (Residues 854-1154); purchased Proteros Biostructures GmbH (Martinsried, Germany); host or cells: insect cells
T1 sequence (P23458 854-1154): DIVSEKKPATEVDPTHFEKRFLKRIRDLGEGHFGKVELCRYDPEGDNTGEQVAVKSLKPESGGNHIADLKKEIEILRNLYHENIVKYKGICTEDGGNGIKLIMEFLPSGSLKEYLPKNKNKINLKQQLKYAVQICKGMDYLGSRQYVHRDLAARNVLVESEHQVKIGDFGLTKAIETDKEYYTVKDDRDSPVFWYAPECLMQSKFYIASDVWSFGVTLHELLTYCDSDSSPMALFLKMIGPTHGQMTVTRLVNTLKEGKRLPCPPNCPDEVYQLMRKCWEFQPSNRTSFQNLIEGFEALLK
Description: (§1) The in vitro biochemical assays quantify JAK-catalyzed phosphorylation of a synthetic peptide, as detected using a LabChip® EZ Reader II microfluidic mobility shift instrument (PerkinElmer; Waltham, MA). The substrate peptide Y-1B has the sequence 5-FAM-VALVDGYFRLTT-NH2. Y-1B is fluorescently labeled on the N-terminus with 5-FAM (5-carboxyfluorescein) and contains a single tyrosine residue (Y) that can be phosphorylated by JAK activity. The substrate peptide stock is prepared in DMSO at 5 mM. Purified recombinant human JAK1 kinase domain protein (Residues 854-1154) was expressed in insect cells and procured from Proteros Biostructures GmbH (Martinsried, Germany). Recombinant human JAK2 kinase domain protein (Residues 812-1132) was expressed in insect cells and purified at Genentech, Inc. (South San Francisco, CA).
(§2) The kinase reaction mixtures contained 100 mM 4-(2-hydroxyethyl)-1-piperazineethanesulfonic acid (HEPES) buffer (pH 7.2), 10 mM magnesium chloride, 0.015% Brij® 35, 4 mM dithiothreitol, 1.5 μM Y-1B peptide substrate, 25 μM adenosine triphosphate (ATP), 1 nM total JAK1 or 0.2 nM total JAK2, and up to 1000 nM test compound in a final concentration of 2% (volume to volume [v/v]) DMSO. In each titration experiment, test compound was tested in duplicate at each of the twelve concentrations. Blank reactions contained ATP, peptide, and DMSO, but no JAK or test compound, whereas uninhibited control reactions contained ATP, peptide, JAK, and DMSO, but no test compound.
(§3) Peptide plus ATP mixture (24 μL) was added to 1 μL of test compound in DMSO (or DMSO alone). The reactions were initiated by adding 25 μL of JAK enzyme to the inhibitor/peptide/ATP mixture before thoroughly mixing the resultant solution. Reactions were incubated at room temperature (22° C.-23° C.) in a final volume of 50 μL per well in 384-well plates. After a 30-minute incubation, the reactions were stopped by adding 25 μL of 150 mM ethylenediaminetetraacetic acid in 100 mM HEPES buffer (pH 7.2) containing 0.015% Brij 35 to each well.
(§4) In each reaction, the residual Y-1B substrate and the phospho-peptide product generated were separated using the EZ Reader 1 instrument. Electrophoretic separation of molecules of product from molecules of substrate was achieved using downstream and upstream voltages of −500 and −2600 V, respectively, at an operating pressure of −1.3 psi. The 5-FAM group present on both the substrate and product peptides was excited at 488 nm, the fluorescence was detected at 530 nm, and the peak heights were reported.
(§5) The extent (or percent) of conversion of substrate to product was calculated from the corresponding peak heights in the electropherogram using HTS Well Analyzer software, Version 5.2 (PerkinElmer), and the following equation (Equation 1): % conversion=[P[…](S+P)]×100 Equation 1 where S and P represent the peak heights of the substrate and product, respectively. After any baseline signal from blank wells containing no JAK was subtracted from the signal of all test wells, the % conversion data were converted to fractional activity as shown in Equation 2, where νi and νo are the % conversion in the presence and absence of test compound, respectively. The % conversion observed in the uninhibited control reactions containing JAK and DMSO vehicle, but no test compound, was defined to have fractional activity=1 (with no inhibitor present, νi=νo), whereas blank wells with no JAK were defined as having fractional activity=0. Fractional activity was plotted against test compound concentration and the data were fitted using XLfit software (IDBS; Guildford, United Kingdom) to a tight-binding apparent inhibition constant (Ki^app) quadratic equation (see Equation 2) (Williams J W, Morrison J F. The kinetics of reversible tight-binding inhibition. Methods Enymol 1979; 63:437-67), which was used to calculate fractional activity and Ki^app […]

[2] = molecular target: T2, Recombinant human JAK2 kinase domain protein (Residues 812-1132) (Homo sapiens, UniProt O60674); assay: JAK2 biochemical assay (microfluidic mobility shift, peptide phosphorylation); settings: 25 μM ATP, 0.2 nM total JAK2; Ki calculated from Ki app (tight-binding, competitive); read-out: Biochem JAK2 Ki
T2 construct: human JAK2 kinase domain protein (Residues 812-1132); made in house; host or cells: insect cells
T2 sequence (O60674 812-1132): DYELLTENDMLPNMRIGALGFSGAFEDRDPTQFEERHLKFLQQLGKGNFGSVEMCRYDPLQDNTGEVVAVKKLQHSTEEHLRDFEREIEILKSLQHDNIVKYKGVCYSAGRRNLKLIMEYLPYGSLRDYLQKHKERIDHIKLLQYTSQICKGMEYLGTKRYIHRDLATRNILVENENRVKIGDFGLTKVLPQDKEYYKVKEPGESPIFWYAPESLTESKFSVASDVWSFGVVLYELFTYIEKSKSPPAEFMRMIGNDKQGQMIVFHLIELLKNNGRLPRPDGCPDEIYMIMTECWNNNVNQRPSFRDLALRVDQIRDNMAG
Description: as §1, §2, §3, §4, §5

[3] = system: JAK1 (IL-13-stimulated STAT6 phosphorylation in BEAS-2B cells); assay: P-STAT6 BEAS-2B+IL-13 cell assay; assay type: cell-based, human; settings: 1 hour compound, IL-13 15 minutes, IC50 by four-parameter fit, read-out: Cellular JAK1 PSTAT6 BEAS2B + IL13
Description: In order to study the effect of JAK1 inhibitors in a cell line that is relevant to the cell biology of human asthma, an IL-13-stimulated STAT6 phosphorylation assay in the human lung bronchial epithelial BEAS-2B cell line was developed.
BEAS-2B cells (ATCC® CRL-9609™) were grown in Bronchial Epithelial Growth Medium (BEGM) (Lonza Catalog No. CC-3170; Walkersville, MD; or PromoCell Catalog No. C-21060; Heidelberg, Germany). Test compound stock solutions (0.5 mM in DMSO) were serially diluted 1:2 in DMSO to generate a 10-point concentration curve (at 500× test concentration), which was further diluted by a 50-fold dilution step in BEGM to generate a 10× concentration curve (in 2% DMSO). Cells were plated at 100,000 cells/well in 200 μL of BEGM in 96-well plates and incubated for 48 hours at 37° C. in a humidified incubator. Medium was aspirated from the cells and replaced with 70 μL of fresh BEGM. Diluted test compound (10 μL; or 2% DMSO in assay medium) was added to the cells, and the plates were incubated for 1 hour at 37° C. in a humidified incubator. Twenty μL of 250 ng/mL human recombinant IL-13 (Bio Techne Catalog No. 213-ILB) was then added to the cells and incubated for 15 minutes at 37° C. Medium was aspirated from the cells and 60 μL of ice-cold 1×cell lysis buffer (Cell Signaling Technologies; Catalog No. 9803S) containing 1 mM PMSF was added to the cells. Assay plates were incubated at −80° C. for at least 1 hour. P-STAT6 was measured by coating GAR plates (MSD; Catalog No. L45RA-1) with rabbit anti-human total STAT6 antibody (Cell Signaling Technologies; Catalog No. 9362S), incubating the cell lysates in the coated plates overnight at 4° C., and then detecting with mouse anti-phospho-STAT6 (Tyr641) Clone 16E12 antibody (Millipore; Catalog No. 05-590, custom labeled by MSD with SULFO-tag) using standard MSD plate processing, washing, and detection protocols. Plates were read on the MESO SECTOR S600.
Data analysis was performed by subtracting negative control values from all wells and determining percent of control using the positive control values; the IC50 was determined with a four-parameter logistic fit model as shown in Equation 4.

| SMILES | Ki [1] | Ki [2] | IC50 [3] | IC50 ([3]; Homo sapiens, BEAS-2B, 1 h) | IC50 ([3]; formic acid) |
| --- | --- | --- | --- | --- | --- |
| CN(C)C1CCC(N2CC(n3nnc(Cn4cc(NC(=O)c5cnn6cccnc56)c(-c5cc(OC(F)F)ccc5OC(F)F)n4)n3)C2)C1 (single isomer, unassigned) [Example 76, N-[3-[2,5-bis(difluoromethoxy)phenyl]-1-[[2-[1-[3-(dimethylamino)cyclopentyl]azetidin-3-yl]tetrazol-5-yl]methyl]pyrazol-4-yl]pyrazolo[1,5-a]pyrimidine-3-carboxamide] | 2.4 nM | 1.9 nM | 74 nM |  |  |
| CN(C)CCN(C)C1CC(n2nnc(Cn3cc(NC(=O)c4cnn5cccnc45)c(-c4cc(OC(F)F)ccc4OC(F)F)n3)n2)C1 (single isomer, unassigned) [Example 81, N-[3-[2,5-bis(difluoromethoxy)phenyl]-1-[[2-[3-[2-(dimethylamino)ethyl-methyl-amino]cyclobutyl]tetrazol-5-yl]methyl]pyrazol-4-yl]pyrazolo[1,5-a]pyrimidine-3-carboxamide; formic acid] | 0.52 nM | 0.47 nM |  | 29 nM |  |
| CN(C)CCN(C)C1CC(n2nnc(Cn3cc(NC(=O)c4cnn5cccnc45)c(-c4cc(OC(F)F)ccc4OC(F)F)n3)n2)C1 (single isomer, unassigned) [Example 82, N-[3-[2,5-bis(difluoromethoxy)phenyl]-1-[[2-[3-[2-(dimethylamino)ethyl-methyl-amino]cyclobutyl]tetrazol-5-yl]methyl]pyrazol-4-yl]pyrazolo[1,5-a]pyrimidine-3-carboxamide; formic acid] | 0.54 nM | 0.47 nM |  |  | 32 nM |
| CN(C)CC(F)CN1CC(n2nnc(Cn3cc(NC(=O)c4cnn5cccnc45)c(-c4cc(OC(F)F)ccc4OC(F)F)n3)n2)C1 (single isomer, unassigned) [Example 83, N-[3-[2,5-bis(difluoromethoxy)phenyl]-1-[[2-[1-[3-(dimethylamino)-2-fluoro-propyl]azetidin-3-yl]tetrazol-5-yl]methyl]pyrazol-4-yl]pyrazolo[1,5-a]pyrimidine-3-carboxamide] | 0.43 nM | 0.39 nM |  | 17 nM |  |
| CN(C)CC(F)CN1CC(n2nnc(Cn3cc(NC(=O)c4cnn5cccnc45)c(-c4cc(OC(F)F)ccc4OC(F)F)n3)n2)C1 (single isomer, unassigned) [Example 84, N-[3-[2,5-bis(difluoromethoxy)phenyl]-1-[[2-[1-[3-(dimethylamino)-2-fluoro-propyl]azetidin-3-yl]tetrazol-5-yl]methyl]pyrazol-4-yl]pyrazolo[1,5-a]pyrimidine-3-carboxamide] | 0.55 nM | 0.5 nM | 20 nM |  |  |
| CN1CCC[C@@H]1Cn1nnc(Cn2cc(NC(=O)c3cnn4cccnc34)c(-c3cc(OC(F)F)ccc3OC(F)F)n2)n1 (stereo in doubt) [Example 49, N-[3-[2,5-bis(difluoromethoxy)phenyl]-1-[[2-[[rac-(2R)-1-methylpyrrolidin-2-yl]methyl]tetrazol-5-yl]methyl]pyrazol-4-yl]pyrazolo[1,5-a]pyrimidine-3-carboxamide] | 0.53 nM | 0.41 nM |  | 19 nM |  |
| CN1CCC[C@H]1Cn1nnc(Cn2cc(NC(=O)c3cnn4cccnc34)c(-c3cc(OC(F)F)ccc3OC(F)F)n2)n1 (stereo in doubt) [Example 53, N-[3-[2,5-bis(difluoromethoxy)phenyl]-1-[[2-[[rac-(2S)-1-methylpyrrolidin-2-yl]methyl]tetrazol-5-yl]methyl]pyrazol-4-yl]pyrazolo[1,5-a]pyrimidine-3-carboxamide] | 0.48 nM | 0.32 nM |  | 35 nM |  |
| O=C(Nc1cn(Cc2nnn(CCO)n2)nc1-c1cc(Cl)ccc1OC(F)F)c1cnn2cccnc12 [Example 1, N-[3-[5-chloro-2-(difluoromethoxy)phenyl]-1-[[2-(2-hydroxyethyl)tetrazol-5-yl]methyl]pyrazol-4-yl]pyrazolo[1,5-a]pyrimidine-3-carboxamide] | 0.15 nM | 0.089 nM |  | 6.7 nM |  |
| O=C(Nc1cn(Cc2nnn(CCN3CCOCC3)n2)nc1-c1cc(Cl)ccc1OC(F)F)c1cnn2cccnc12 [Example 2, N-[3-[5-chloro-2-(difluoromethoxy)phenyl]-1-[[2-(2-morpholinoethyl)tetrazol-5-yl]methyl]pyrazol-4-yl]pyrazolo[1,5-a]pyrimidine-3-carboxamide] | 0.54 nM | 0.29 nM |  | 14 nM |  |
| CN1CCC(n2nnc(Cn3cc(NC(=O)c4cnn5cccnc45)c(-c4cc(Cl)ccc4OC(F)F)n3)n2)CC1 [Example 3, N-[3-[5-chloro-2-(difluoromethoxy)phenyl]-1-[[2-(1-methyl-4-piperidyl)tetrazol-5-yl]methyl]pyrazol-4-yl]pyrazolo[1,5-a]pyrimidine-3-carboxamide] | 0.58 nM | 0.43 nM |  | 14 nM |  |
| O=C(Nc1cn(Cc2nnn(C3COC3)n2)nc1-c1cc(Cl)ccc1OC(F)F)c1cnn2cccnc12 [Example 4, N-[3-[5-chloro-2-(difluoromethoxy)phenyl]-1-[[2-(oxetan-3-yl)tetrazol-5-yl]methyl]pyrazol-4-yl]pyrazolo[1,5-a]pyrimidine-3-carboxamide] | 0.23 nM | 0.12 nM |  | 6.8 nM |  |
